Earlier results on four molecules are cited in patent publication US20190209538A1, “Precision Controlled Load and Release Particles for Post-Operative Pain” (LIQUIDIA TECHNOLOGIES, INC., priority 2016, published 2019).

The conditions of series [1]: in vivo.
For series [2] the following is noted: room temperature, aqueous system between pH 7.0 and pH 9.0.

As to `CCCCN1CCCC[C@H]1C(=O)Nc1c(C)cccc1C` [levobupivacaine], the clearance rate in series [1] is reported as 0.32 L/min.

For `CCCCN1CCCCC1C(=O)Nc1c(C)cccc1C` (stereo not shown) [bupivacaine free base, bupivacaine], in series [2], the “solubility relative to bupivacaine HCl” value is recorded as “less soluble than bupivacaine HCl”.

`CCCN1CCCC[C@H]1C(=O)Nc1c(C)cccc1C` [ropivacaine]: the clearance rate in series [1] is given as around 0.72 L/min.

Consider `CCCCN1CCCCC1C(=O)Nc1c(C)cccc1C` (stereo not shown) [bupivacaine], for which the clearance rate in series [1] is recorded as 0.58 L/min.
